The record followed here is ChEMBL document CHEMBL1130503, “Synthesis and antibacterial activity of some thio trinems” (Bioorg Med Chem Lett, 1997).

Each structure is given as a SMILES string. In brackets after ≈: the same amount, converted by molar mass. Where only a bound is given, the exact number is not on record here.

One data set has as its system Bacteroides fragilis. Put plainly: The compound was tested in vitro for the antibacterial activity against Bacteroides fragilis 2017 strain, activity expressed as MIC. In kind it is functional.
The subject of another data set is Clostridium perfringens. Kind of data set: The compound was tested in vitro for the antibacterial activity against Clostridium perfringens 615E strain, activity expressed as MIC. In kind it is functional.
Data set [1] concerns Escherichia coli. Put plainly: The compound was tested in vitro for the antibacterial activity against Escherichia coli 1919 beta-lactamase producing strain, activity expressed as MIC. Format: functional.
For data set [2], the system named is Staphylococcus aureus. Kind of data set: The compound was tested in vitro for the antibacterial activity against Staphylococcus aureus 663E strain, activity expressed as MIC. In kind it is functional.
The subject of data set [3] is Staphylococcus aureus. Put plainly: The compound was tested in vitro for the antibacterial activity against Staphylococcus aureus 853E beta-lactamase producing strain, activity expressed as MIC. In kind it is functional.
The subject of data set [4] is Escherichia coli. Kind of data set: The compound was tested in vitro for the antibacterial activity against Escherichia coli 1850E strain, activity expressed as MIC. In kind it is functional.
The test system of data set [5] is renal dehydropeptidase I (DHP-I). Put plainly: Tested for Biological half life in human plasma (stability to human renal dehydropeptidase I,DHP-I). In kind it is ADME, cell-free.
Data set [6] has the same test system. Kind of data set: Biological half life in human plasma (stability to human renal dehydropeptidase I,DHP-I). Format: ADME, cell-free.
[7] abbreviates: Clostridium perfringens, read-out: MIC.

Consider `C[C@@H](O)[C@H]1C(=O)N2C(C(=O)[O-])=C3CCCS[C@@H]3[C@H]12.[Na+]`, for which the minimal inhibitory concentration (MIC) (commonly the least concentration at which growth counts as inhibited) against Bacteroides fragilis (Bacteroides fragilis) was 0.25 µg/mL; with Clostridium perfringens (setting [7]), 30 µg/mL; in the data set with Escherichia coli [1] (Escherichia coli), 0.5 µg/mL; with Staphylococcus aureus [2] (Staphylococcus aureus), 1 µg/mL; against Staphylococcus aureus [3] (Staphylococcus aureus), 1 µg/mL; against Escherichia coli [4] (Escherichia coli) it was 0.5 µg/mL.
Turning to `CS[C@H]1CCS[C@H]2C1=C(C(=O)[O-])N1C(=O)[C@H]([C@@H](C)O)[C@@H]21.[Na+]`, the half-life – broadly, how long it takes for the measured level to halve – in data set [5] amounted to 386 min. The MIC was 0.2 µg/mL with Bacteroides fragilis (Bacteroides fragilis); at most 10 µg/mL with Clostridium perfringens (setting [7]); 1 µg/mL in the data set with Escherichia coli [1] (Escherichia coli); 0.2 µg/mL in the data set with Staphylococcus aureus [2] (Staphylococcus aureus); 0.5 µg/mL with Staphylococcus aureus [3] (Staphylococcus aureus); 2 µg/mL with Escherichia coli [4] (Escherichia coli).
In turn, `C=CCOC(=O)C1=C2SCCC[C@H]2[C@@H]2[C@@H]([C@@H](C)O)C(=O)N12` yielded a half-life in data set [5] of 10 min. The MIC in the data set with Clostridium perfringens (setting [7]) was determined as 500 µg/mL (≈ 1620 µM); with Escherichia coli [1] (Escherichia coli), 2 µg/mL (≈ 6.46 µM); against Staphylococcus aureus [2] (Staphylococcus aureus), 1 µg/mL (≈ 3.23 µM); against Staphylococcus aureus [3] (Staphylococcus aureus), 1 µg/mL (≈ 3.23 µM); against Escherichia coli [4] (Escherichia coli) it was 1 µg/mL (≈ 3.23 µM).
For the compound `C[C@@H](O)[C@H]1C(=O)N2C(C(=O)[O-])=C3CCSCC3[C@H]12.[K+]` (stereo in doubt; 15a), in data set [6], the half-life stood at 12 min. In addition, the minimal inhibitory concentration (MIC) in the data set with Bacteroides fragilis came to 0.12 µg/mL; with Clostridium perfringens, 1000 µg/mL; in the data set with Escherichia coli [1] (Escherichia coli), 2 µg/mL; in the data set on Staphylococcus aureus [2] (Staphylococcus aureus), 1 µg/mL; against Staphylococcus aureus [3] (Staphylococcus aureus), 1 µg/mL; in the data set on Escherichia coli [4] (Escherichia coli), 4 µg/mL.
In data set [5], `C[C@@H](O)[C@H]1C(=O)N2C(C(=O)[O-])=C3CCSCC3[C@H]12.[K+]` (stereo in doubt; 15b) had a half-life below 7 min. Further, the MIC against Bacteroides fragilis stood at 0.5 µg/mL; against Clostridium perfringens it was 250 µg/mL; against Escherichia coli [1], 1 µg/mL; against Staphylococcus aureus [2] it was 1 µg/mL; in the data set with Staphylococcus aureus [3] it was 0.5 µg/mL; in the data set on Escherichia coli [4], 4 µg/mL.
For `C[C@@H](O)[C@H]1C(=O)N2C(C(=O)O)=C(SCCNC=N)C[C@H]12` [IMIPENEM ANHYDROUS], the minimum inhibitory concentration (MIC) came to 0.12 µg/mL (≈ 0.401 µM) against Bacteroides fragilis (Bacteroides fragilis); 30 µg/mL (≈ 100 µM) in the data set on Clostridium perfringens (setting [7]); 0.5 µg/mL (≈ 1.67 µM) in the data set with Escherichia coli [1] (Escherichia coli); 0.06 µg/mL (≈ 0.2 µM) against Staphylococcus aureus [2] (Staphylococcus aureus); 0.12 µg/mL (≈ 0.401 µM) against Staphylococcus aureus [3] (Staphylococcus aureus); 0.5 µg/mL (≈ 1.67 µM) against Escherichia coli [4] (Escherichia coli).
